# Where two headings read alike, the source gives them in different places.
# Tests used:
# [1] = Human hepatocyte intrinsic clearance assay; type: in vitro ADME; settings: human hepatocytes
# Protocol: Human hepatocytes (LiverPool™ 10-Donor Human hepatocytes (Mixed Gender, PEG-free, Product No. S01205, 5 million cells per vial) were obtained from BioreclamationIVT. DMSO was sourced from Solarbio S&T Co Ltd. Leibovitz's L-15 Medium, Williams' Medium E, GlutaMAX™-1 (100×), HEPES, DPBS (10×) and Human Recombinant Insulin Solution were purchased from Gibco. Isotonic Percoll Solution was purchased from GE Healthcare. Fetal Bovine Serum (FBS) was purchased from Corning.
# 10 mM dexamethasone stock solution was prepared by dissolving 3.9 mg dexamethasone in 1 mL of DMSO. An Isotonic Percoll Solution was prepared by dilution of Percoll with DPBS (10×). 15 mL of Isotonic Percoll Solution (90% Percoll/10% DPBS) was added to 31.25 mL William's E medium containing 500 mL of GlutaMAX™-1 (100×), 750 mL of 1M HEPES, 2.5 mL of 5% FBS, 50 mL of 4 mg/mL Human Recombinant Insulin Solution and 5 mL of the 10 mM dexamethasone stock.
# 2 mL of 10 mM DMSO stock solutions of test compound were added to 198 mL acetonitrile to produce 100 mmol/L concentration.
# The human hepatocyte vial was thawed at 37° C. in a waterbath. Once thawed, contents were poured into a 50 mL conical tube and centrifuged at 100 g for 10 minutes. The thawing medium was poured out and 4 mL L-15 medium was added. The tube was gently shaken to resuspend the hepatocytes and cells were counted with an appropriate cell counter. 247.5 mL of the hepatocyte suspension was transferred into each well of the plate and pre-warmed at 600 rpm and 50° C. to enable the temperature to rise to 37° C.
# 2.5 mL of the […] test compound solution was added to initiate the reaction (final concentration […]) and incubated at 37° C. with shaking at 900 rpm. At 0.5, 5, 15, 30, 45, 60, 80, 100 and 120 minutes, 20 mL was taken into a quenching solution of acetonitrile containing internal standards. The mix was vortexed at 800 rpm for 2 minutes followed by centrifugation for 20 minutes at 4000 rpm at 4° C. 40 mL of supernatant was transferred into a 96 well analysis plate containing 160 mL of water in each well. The analysis plate was shaken at 100 rpm for 2 minutes prior to analysis by LC-MS/MS.
# Peak areas were determined from extracted ion chromatograms. Percent parent remaining was calculated from peak area of test compound. The slope value, k, was determined by linear regression of the natural logarithm of percent parent remaining versus incubation time.
# The in vitro intrinsic clearance (in vitro CLint in mL/min/10^6 cells) was determined from the slope value using the following equation: […]
# where V is the incubation volume (0.25 mL) and N is the number of hepatocytes per well (0.25×10^6 cells).
# HEL cells = test: Proliferation assay, HEL control cell line (CellTiter-Glo, 7 days); type: cell-based, human
# Procedure, shortened: (§1)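 Cells seeded at 125 (MOLM-13), 300 (MV4;11), 75 (OCI-AML3) or 200 (HEL) per well were exposed to 3.16-fold compound dilutions (0.1% DMSO) for 7 days at 37° C. Viability by CellTiter-Glo luminescence, normalized to DMSO (100%) and day-0 plate (0%); IC50 from one-site dose-response fit.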
# hERG = hERG (Homo sapiens (Human), UniProt Q12809); test: hERG assay 1 (standard), SyncroPatch 384PE; type: cell-based; settings: CHO cells, room temperature, up to 40 uM
# Procedure, shortened: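 Automated patch clamp on hERG-expressing CHO-K1 cells at room temperature, +60/−40 mV protocol every 15 s. Six-point cumulative concentrations 139 nM to 40 uM (0.33% DMSO final); IC50 from one-site fit of % inhibition. Wells required ≥30 MegaOhm seal, current >0.2 nA, Z prime >0.4.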
# MV4;11 cells = test: Proliferation assay, MV4;11 (CellTiter-Glo, 7 days); type: cell-based, human; settings: read-out: MV-4-11 IC50
# Procedure, shortened: as §1
# Chain of hERG (Q12809 whole entry): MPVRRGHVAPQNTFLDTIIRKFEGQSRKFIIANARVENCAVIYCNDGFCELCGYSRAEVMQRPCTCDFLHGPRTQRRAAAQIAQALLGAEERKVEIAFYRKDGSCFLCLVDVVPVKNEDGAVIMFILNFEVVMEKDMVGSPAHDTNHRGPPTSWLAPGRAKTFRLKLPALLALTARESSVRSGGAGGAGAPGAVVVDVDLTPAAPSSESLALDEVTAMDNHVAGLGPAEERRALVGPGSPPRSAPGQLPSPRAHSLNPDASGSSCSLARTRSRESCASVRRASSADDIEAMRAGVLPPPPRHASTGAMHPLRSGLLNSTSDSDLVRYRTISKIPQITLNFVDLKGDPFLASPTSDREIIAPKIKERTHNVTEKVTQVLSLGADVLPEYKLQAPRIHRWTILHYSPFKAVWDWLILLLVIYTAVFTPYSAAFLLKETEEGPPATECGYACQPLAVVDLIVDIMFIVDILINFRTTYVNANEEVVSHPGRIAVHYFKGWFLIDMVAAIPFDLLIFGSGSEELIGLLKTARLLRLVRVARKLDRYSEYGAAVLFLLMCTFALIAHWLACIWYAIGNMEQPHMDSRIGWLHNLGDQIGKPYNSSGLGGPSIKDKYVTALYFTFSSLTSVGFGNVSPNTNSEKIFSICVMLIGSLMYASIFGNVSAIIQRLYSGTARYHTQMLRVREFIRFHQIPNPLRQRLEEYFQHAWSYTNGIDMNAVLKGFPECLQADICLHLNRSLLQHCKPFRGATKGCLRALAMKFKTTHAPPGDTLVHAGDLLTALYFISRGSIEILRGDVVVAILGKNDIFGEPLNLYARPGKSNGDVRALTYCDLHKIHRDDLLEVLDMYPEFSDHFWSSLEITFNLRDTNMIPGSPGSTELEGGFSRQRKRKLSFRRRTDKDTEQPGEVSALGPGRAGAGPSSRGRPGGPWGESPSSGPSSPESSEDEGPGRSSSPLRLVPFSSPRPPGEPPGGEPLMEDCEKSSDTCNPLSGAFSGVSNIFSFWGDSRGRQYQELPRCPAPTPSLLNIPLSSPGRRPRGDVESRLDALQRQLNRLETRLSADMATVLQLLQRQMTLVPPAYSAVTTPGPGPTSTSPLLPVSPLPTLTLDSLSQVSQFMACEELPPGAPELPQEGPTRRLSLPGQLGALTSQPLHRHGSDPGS
HH CLint [1],"IC50 (MV4;11 cells; Homo sapiens, MV4-11, 168 h)",IC50 (MV4;11 cells),Compound,"IC50 (HEL cells; Homo sapiens, HEL, 168 h)",IC50 (hERG),IC50 (HEL cells)
6.4 μl/min/1E6,0.04 µM,–,"Cc1c(C(=O)C2CCN(C(=O)[C@H]3NC[C@@H]4C[C@@H]43)CC2)c2ccncc2n1-c1ccc(F)cc1-c1cnccc1C(C)C [Example 54, (1-((1S,2S,5R)-3-Azabicyclo[3.1.0]hexane-2-carbonyl)piperidin-4-yl)(1-(4-fluoro-2-(4-isopropylpyridin-3-yl)phenyl)-2-methyl-1H-pyrrolo[2,3-c]pyridin-3-yl)methanone]",> 10 µM,13.1 µM,–
<1.0 μl/min/1E6,0.034 µM,–,"CC(C)c1ncncc1-c1cc(F)ccc1-n1cc(C(=O)C2CCN(C(=O)[C@H]3N[C@@H]4CC[C@H]3C4)CC2)c2ccncc21 [Example 37, (1-((1R,3S,4S)-2-Azabicyclo[2.2.1]heptane-3-carbonyl)piperidin-4-yl)(1-(4-fluoro-2-(4-isopropylpyrimidin-5-yl)phenyl)-1H-pyrrolo[2,3-c]pyridin-3-yl)methanone]",> 10 µM,> 40 µM,–
1.6 μl/min/1E6,0.044 µM,–,"C=C1C[C@@H]2CC[C@H]1[C@@H](C(=O)N1CCC(C(=O)c3cn(-c4ccc(F)cc4C(=O)N(C(C)C)C(C)C)c4cnccc34)CC1)N2 [Example 18, 5-Fluoro-N,N-diisopropyl-2-(3-(1-((1S,3S,4R)-5-methylene-2-azabicyclo[2.2.2]-octane-3-carbonyl)piperidine-4-carbonyl)-1H-pyrrolo[2,3-c]pyridin-1-yl)benzamide]",> 10 µM,> 40 µM,–
<1.0 μl/min/1E6,0.043 µM,–,"CC(C)n1nccc1-c1cc(F)ccc1-n1cc(C(=O)C2CCN(C(=O)[C@H]3N[C@@H]4CC[C@H]3C4)CC2)c2ccncc21 [Example 36, (1-((1R,3S,4S)-2-Azabicyclo[2.2.1]heptane-3-carbonyl)piperidin-4-yl)(1-(4-fluoro-2-(1-isopropyl-1H-pyrazol-5-yl)phenyl)-1H-pyrrolo[2,3-c]pyridin-3-yl)methanone]",> 10 µM,> 40 µM,–
2.0 μl/min/1E6,0.027 µM,–,"CC(C)N(C(=O)c1cc(F)ccc1-n1cc(C(=O)C2CCN(C(=O)[C@H]3NC[C@@H]4CCC[C@@H]43)CC2)c2ccncc21)C(C)C [Example 21, 5-Fluoro-N,N-diisopropyl-2-(3-(1-((1S,3αR,6αS)-octahydrocyclopenta[c]pyrrole-1-carbonyl)piperidine-4-carbonyl)-1H-pyrrolo[2,3-c]pyridin-1-yl)benzamide]",> 10 µM,> 40 µM,–
<1.0 μl/min/1E6,0.031 µM,–,"CC(C)c1cnccc1-c1cc(F)ccc1-n1cc(C(=O)C2CN(C(=O)[C@H]3N[C@@H]4CC[C@H]3C4)C2)c2ccncc21.O=CO [Example 11, (1-((1R,3S,4S)-2-Azabicyclo[2.2.1]heptane-3-carbonyl)azetidin-3-yl)(1-(4-fluoro-2-(3-isopropylpyridin-4-yl)phenyl)-1H-pyrrolo[2,3-c]pyridin-3-yl)methanone 1·formic acid]",> 10 µM,> 40 µM,–
<1.0 μl/min/1E6,0.025 µM,–,"CC(C)N(C(=O)c1cc(F)ccc1-n1cc(C(=O)C2CCN(C(=O)[C@H]3NC4CCC3CC4)CC2)c2ccncc21)C(C)C [Example 20, (S)-2-(3-(1-(2-Azabicyclo[2.2.2]octane-3-carbonyl)piperidine-4-carbonyl)-1H-pyrrolo[2,3-c]pyridin-1-yl)-5-fluoro-N,N-diisopropylbenzamide]",> 10 µM,> 40 µM,–
<1.0 μl/min/1E6,0.037 µM,–,"CCN(C(=O)c1cc(F)ccc1-n1c(C)c(C(=O)C2CCN(C(=O)[C@H]3N[C@@H]4CC[C@H]3C4)CC2)c2ccncc21)C(C)C [Example 46, 2-(3-(1-((1R,3S,4S)-2-Azabicyclo[2.2.1]heptane-3-carbonyl)piperidine-4-carbonyl)-2-methyl-1H-pyrrolo[2,3-c]pyridin-1-yl)-N-ethyl-5-fluoro-N-isopropylbenzamide]",> 10 µM,> 40 µM,–

# The remaining lines, values behind:
Compound,HH CLint [1],"IC50 (MV4;11 cells; Homo sapiens, MV4-11, 168 h)",IC50 (MV4;11 cells),"IC50 (HEL cells; Homo sapiens, HEL, 168 h)",IC50 (hERG),IC50 (HEL cells)
"CC(C)N(C(=O)c1cc(F)ccc1-n1cc(C(=O)C2CN(C(=O)[C@H]3N[C@@H]4CC[C@H]3C4)C2)c2ccncc21)C(C)C [Example 5, 2-(3-(1-((1R,3S,4S)-2-Azabicyclo[2.2.1]heptane-3-carbonyl)azetidine-3-carbonyl)-1H-pyrrolo[2,3-c]pyridin-1-yl)-5-fluoro-N,N-diisopropylbenzamide]",<1.0 μl/min/1E6,0.085 µM,–,> 10 µM,> 40 µM,–
"CC(C)N(C(=O)c1cc(F)ccc1-n1cc(C(=O)C2CCN(C(=O)[C@@H]3CCC(C)(C)N3)CC2)c2ccncc21)C(C)C [Example 27, (S)-2-(3-(1-(5,5-Dimethylpyrrolidine-2-carbonyl)piperidine-4-carbonyl)-1H-pyrrolo[2,3-c]pyridin-1-yl)-5-fluoro-N,N-diisopropylbenzamide]",<1.0 μl/min/1E6,0.035 µM,–,> 10 µM,> 40 µM,–
"CCN(C(=O)c1cc(F)ccc1-n1cc(C(=O)C2CCN(C(=O)[C@H]3N[C@@H]4CC[C@H]3C4)CC2)c2ccncc21)C(C)C [Example 31, 2-(3-(1-((1R,3S,4S)-2-Azabicyclo[2.2.1]heptane-3-carbonyl)piperidine-4-carbonyl)-1H-pyrrolo[2,3-c]pyridin-1-yl)-N-ethyl-5-fluoro-N-isopropylbenzamide]",<1.0 μl/min/1E6,0.032 µM,–,> 10 µM,> 40 µM,–
"Cc1c(C(=O)[C@@H]2CCN(C(=O)[C@H]3NC[C@@H]4C[C@@H]43)[C@@H](C)C2)c2ccncc2n1-c1ccc(F)cc1C(=O)N(CC(F)(F)F)C(C)C (single isomer, unassigned) [Example 53-3, 2-(3-((2R*,4S*)-1-((1S,2S,5R)-3-Azabicyclo[3.1.0]hexane-2-carbonyl)-2-methylpiperidine-4-carbonyl)-2-methyl-1H-pyrrolo[2,3-c]pyridin-1-yl)-5-fluoro-N-isopropyl-N-(2,2,2-trifluoroethyl)benzamide]",3.3 μl/min/1E6,–,0.013 µM,–,31.4 µM,> 10 µM
"Cc1c(C(=O)C2CCN(C(=O)[C@H]3NC[C@@H]4C[C@@H]43)CC2)c2ccncc2n1-c1ccc(F)cc1C(=O)N(C(C)C)[C@H](C)C(F)(F)F (single isomer, unassigned) [Example 57-1]",3.2 μl/min/1E6,0.051 µM,–,> 10 µM,> 38.5 µM,–
"CCN(C(=O)c1cc(F)ccc1-n1c(C)c(C(=O)C2CCN(C(=O)[C@H]3NC[C@@H]4C[C@@H]43)CC2)c2ccncc21)C(C)C [Example 47, 2-(3-(1-((1S,2S,5R)-3-Azabicyclo[3.1.0]hexane-2-carbonyl)piperidine-4-carbonyl)-2-methyl-1H-pyrrolo[2,3-c]pyridin-1-yl)-N-ethyl-5-fluoro-N-isopropylbenzamide]",2.1 μl/min/1E6,0.033 µM,–,> 10 µM,> 40 µM,–
"Cc1c(C(=O)C2CCN(C(=O)[C@H]3NC[C@@H]4C[C@@H]43)CC2)c2ccncc2n1-c1ccc(F)cc1C(=O)N(C(C)C)C(C)C (single isomer, unassigned) [Example 55-2]",4.2 μl/min/1E6,–,0.031 µM,–,> 40 µM,> 10 µM
